Measurements published in patent publication US11267845B2, “Inhibitors of CD73-mediated immunosuppression” (ARCUS BIOSCIENCES, INC., priority 2016, dated 2022).

Molecular target: T1, CD73 (Homo sapiens, UniProt P21589)
T1 sequence (P21589 27-549): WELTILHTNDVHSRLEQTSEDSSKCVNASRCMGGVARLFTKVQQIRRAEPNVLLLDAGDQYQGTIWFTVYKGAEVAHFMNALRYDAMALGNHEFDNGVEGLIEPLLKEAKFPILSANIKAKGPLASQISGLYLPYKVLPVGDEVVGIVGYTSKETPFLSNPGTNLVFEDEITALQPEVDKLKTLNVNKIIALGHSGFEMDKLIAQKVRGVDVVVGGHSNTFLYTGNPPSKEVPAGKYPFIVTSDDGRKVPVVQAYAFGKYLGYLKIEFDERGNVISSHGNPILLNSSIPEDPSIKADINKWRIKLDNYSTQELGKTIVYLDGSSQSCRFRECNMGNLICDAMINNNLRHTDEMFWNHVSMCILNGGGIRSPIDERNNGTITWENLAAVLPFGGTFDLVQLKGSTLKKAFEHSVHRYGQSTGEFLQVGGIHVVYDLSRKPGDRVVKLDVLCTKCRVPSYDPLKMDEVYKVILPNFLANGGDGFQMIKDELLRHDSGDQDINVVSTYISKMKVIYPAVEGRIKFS
Experiment: CD73 inhibition (Potency: CD73 IC50)
Assay type: biochemical

SMILES | IC50 [µM]
CN(C[C@H]1O[C@@H](n2cnc3c(NC4CCCC4)nc(Cl)nc32)[C@H](O)[C@@H]1O)C(=O)CP(=O)(O)OCOC(=O)C(C)(C)C [AH] | > 1
O=C(CP(=O)(O)O)N(CC1CC1)C[C@H]1O[C@@H](n2cnc3c(NC4CCCC4)nc(Cl)nc32)[C@H](O)[C@@H]1O [AI] | < 0.1
CC(C)OC(=O)OCOP(=O)(O)CC(=O)N(CC1CC1)C[C@H]1O[C@@H](n2cnc3c(NC4CCCC4)nc(Cl)nc32)[C@H](O)[C@@H]1O [AK] | > 1
CC(C)OC(=O)OCOP(=O)(CC(=O)N(C)C[C@H]1O[C@@H](n2cnc3c(N[C@H]4CCOC4)nc(Cl)nc32)[C@H](O)[C@@H]1O)OCOC(=O)OC(C)C [AM] | > 1
CN(C[C@H]1O[C@@H](n2cnc3c(N[C@H]4CCOC4)nc(Cl)nc32)[C@H](O)[C@@H]1O)C(=O)CP(=O)(O)OCOC(=O)OCC(C)(C)C [AS] | > 1
O=C(CP(=O)(O)O)NC[C@H]1O[C@@H](n2cnc3c(NC4CCCC4)nc(Cl)nc32)[C@H](O)[C@@H]1O [A] | 0.1 to 1
CC(C)N(C[C@H]1O[C@@H](n2cnc3c(NC4CCCC4)nc(Cl)nc32)[C@H](O)[C@@H]1O)C(=O)CP(=O)(O)O [B] | 0.1 to 1
CN(C[C@H]1O[C@@H](n2cnc3c(NC4CCCC4)nc(Cl)nc32)[C@@H](F)[C@@H]1O)C(=O)CP(=O)(O)O [G] | > 1
CCN(C[C@H]1O[C@@H](n2cnc3c(N(C)C4CCCC4)nc(Cl)nc32)[C@H](O)[C@@H]1O)C(=O)CP(=O)(O)O [H] | < 0.1
CN(c1nc(Cl)nc2c1ncn2[C@@H]1O[C@H](CN(CC2CC2)C(=O)CP(=O)(O)O)[C@@H](O)[C@H]1O)C1CCCC1 [I] | < 0.1
CC(C)OC(=O)[C@H](C)NP(=O)(CC(=O)N(C)C[C@H]1O[C@@H](n2cnc3c(NC4CCCC4)nc(Cl)nc32)[C@H](O)[C@@H]1O)Oc1ccccc1 (stereo partly drawn) [M] | > 1
COC(=O)[C@H](C)NP(=O)(CC(=O)N(C)C[C@H]1O[C@@H](n2cnc3c(NC4CCCC4)nc(Cl)nc32)[C@H](O)[C@@H]1O)Oc1ccccc1 (stereo partly drawn) [N] | > 1
CC(C)OC(=O)[C@H](C)NP(=O)(CC(=O)N(C)C[C@H]1O[C@@H](n2cnc3c(NC4CCCC4)nc(Cl)nc32)[C@H](O)[C@@H]1OC(=O)C(C)C)Oc1ccccc1 (stereo partly drawn) [O] | > 1
Cc1cccc2c1NP(=O)(CC(=O)N(C)C[C@H]1O[C@@H](n3cnc4c(NC5CCCC5)nc(Cl)nc43)[C@H](O)[C@@H]1O)OC2 (stereo partly drawn) [S] | > 1
CN(C[C@H]1O[C@@H](n2cnc3c(NC4CCCC4)nc(Cl)nc32)[C@H](O)[C@@H]1O)C(=O)CP1(=O)OCc2ccccc2O1 (stereo partly drawn) [T] | > 1
CN(C[C@H]1O[C@@H](n2cnc3c(NC4CCCC4)nc(Cl)nc32)[C@H](O)[C@@H]1O)C(=O)CP(=O)(Oc1ccccc1)Oc1ccccc1 [U] | > 1
CN(C[C@H]1O[C@@H](n2cnc3c(NC4CCCC4)nc(Cl)nc32)[C@H](O)[C@@H]1O)C(=O)CP(=O)(O)Oc1ccccc1 [V] | > 1
CC(C)OC(=O)OCOP(=O)(CC(=O)N(C)C[C@H]1O[C@@H](n2cnc3c(NC4CCCC4)nc(Cl)nc32)[C@H](O)[C@@H]1O)OCOC(=O)OC(C)C [W] | > 1
CC(C)OC(=O)OCOP(=O)(O)CC(=O)N(C)C[C@H]1O[C@@H](n2cnc3c(NC4CCCC4)nc(Cl)nc32)[C@H](O)[C@@H]1O [X] | > 1
CCOC(=O)OCOP(=O)(CC(=O)N(C)C[C@H]1O[C@@H](n2cnc3c(NC4CCCC4)nc(Cl)nc32)[C@H](O)[C@@H]1O)OCOC(=O)OCC [Y] | > 1
CCOC(=O)OCOP(=O)(O)CC(=O)N(C)C[C@H]1O[C@@H](n2cnc3c(NC4CCCC4)nc(Cl)nc32)[C@H](O)[C@@H]1O [Z] | > 1

Further lines, results first:

IC50 [µM] | SMILES
> 1 | COC(=O)OCOP(=O)(CC(=O)N(C)C[C@H]1O[C@@H](n2cnc3c(NC4CCCC4)nc(Cl)nc32)[C@H](O)[C@@H]1O)OCOC(=O)OC [AA]
> 1 | COC(=O)OCOP(=O)(O)CC(=O)N(C)C[C@H]1O[C@@H](n2cnc3c(NC4CCCC4)nc(Cl)nc32)[C@H](O)[C@@H]1O [AB]
> 1 | CN(C[C@H]1O[C@@H](n2cnc3c(NC4CCCC4)nc(Cl)nc32)[C@H](O)[C@@H]1O)C(=O)CP(=O)(OCOC(=O)OCC(C)(C)C)OCOC(=O)OCC(C)(C)C [AC]
> 1 | CN(C[C@H]1O[C@@H](n2cnc3c(NC4CCCC4)nc(Cl)nc32)[C@H](O)[C@@H]1O)C(=O)CP(=O)(O)OCOC(=O)OCC(C)(C)C [AD]
> 1 | COCCOC(=O)OCOP(=O)(CC(=O)N(C)C[C@H]1O[C@@H](n2cnc3c(NC4CCCC4)nc(Cl)nc32)[C@H](O)[C@@H]1O)OCOC(=O)OCCOC [AE]
> 1 | COCCOC(=O)OCOP(=O)(O)CC(=O)N(C)C[C@H]1O[C@@H](n2cnc3c(NC4CCCC4)nc(Cl)nc32)[C@H](O)[C@@H]1O [AF]
> 1 | CN(C[C@H]1O[C@@H](n2cnc3c(NC4CCCC4)nc(Cl)nc32)[C@H](O)[C@@H]1O)C(=O)CP(=O)(OCOC(=O)C(C)(C)C)OCOC(=O)C(C)(C)C [AG]
> 1 | CC(C)OC(=O)OCOP(=O)(CC(=O)N(CC1CC1)C[C@H]1O[C@@H](n2cnc3c(NC4CCCC4)nc(Cl)nc32)[C@H](O)[C@@H]1O)OCOC(=O)OC(C)C [AJ]
0.1 to 1 | CN(C[C@H]1O[C@@H](n2cnc3c(N[C@H]4CCOC4)nc(Cl)nc32)[C@H](O)[C@@H]1O)C(=O)CP(=O)(O)O [AL]
> 1 | CC(C)OC(=O)OCOP(=O)(O)CC(=O)N(C)C[C@H]1O[C@@H](n2cnc3c(N[C@H]4CCOC4)nc(Cl)nc32)[C@H](O)[C@@H]1O [AN]
> 1 | COCCOC(=O)OCOP(=O)(CC(=O)N(C)C[C@H]1O[C@@H](n2cnc3c(N[C@H]4CCOC4)nc(Cl)nc32)[C@H](O)[C@@H]1O)OCOC(=O)OCCOC [AO]
> 1 | CCOC(=O)OCOP(=O)(CC(=O)N(C)C[C@H]1O[C@@H](n2cnc3c(N[C@H]4CCOC4)nc(Cl)nc32)[C@H](O)[C@@H]1O)OCOC(=O)OCC [AP]
> 1 | CCOC(=O)OCOP(=O)(O)CC(=O)N(C)C[C@H]1O[C@@H](n2cnc3c(N[C@H]4CCOC4)nc(Cl)nc32)[C@H](O)[C@@H]1O [AQ]
> 1 | CN(C[C@H]1O[C@@H](n2cnc3c(N[C@H]4CCOC4)nc(Cl)nc32)[C@H](O)[C@@H]1O)C(=O)CP(=O)(OCOC(=O)OCC(C)(C)C)OCOC(=O)OCC(C)(C)C [AR]
< 0.1 | CCN(C[C@H]1O[C@@H](n2cnc3c(NC4CCCC4)nc(Cl)nc32)[C@H](O)[C@@H]1O)C(=O)CP(=O)(O)O [C]
< 0.1 | O=C(CP(=O)(O)O)N(Cc1ccccc1)C[C@H]1O[C@@H](n2cnc3c(NC4CCCC4)nc(Cl)nc32)[C@H](O)[C@@H]1O [D]
< 0.1 | O=C(O)CN(C[C@H]1O[C@@H](n2cnc3c(NC4CCCC4)nc(Cl)nc32)[C@H](O)[C@@H]1O)C(=O)CP(=O)(O)O [E]
> 1 | CC(C)OC(=O)[C@H](C)NP(=O)(CC(=O)N(C)C[C@H]1O[C@@H](n2cnc3c(NC4CCCC4)nc(Cl)nc32)[C@H](O)[C@@H]1O)N[C@@H](C)C(=O)OC(C)C [Example P]
< 0.1 | O=C(CP(=O)(O)O)N(CCO)C[C@H]1O[C@@H](n2cnc3c(NC4CCCC4)nc(Cl)nc32)[C@H](O)[C@@H]1O [F]
0.1 to 1 | CN(C[C@H]1O[C@@H](n2ncc3c(NC4CCCC4)nc(Cl)nc32)[C@H](O)[C@@H]1O)C(=O)CP(=O)(O)O [J]
< 0.1 | O=C(CP(=O)(O)O)N(CC1CC1)C[C@H]1O[C@@H](n2ncc3c(NC4CCCC4)nc(Cl)nc32)[C@H](O)[C@@H]1O [K]
< 0.1 | CN(C[C@H]1O[C@@H](n2cnc3c(NC4CCCC4)nc(Cl)nc32)[C@H](O)[C@@H]1O)C(=O)CP(=O)(O)O [L]
> 1 | CN(C[C@H]1O[C@@H](n2cnc3c(NC4CCCC4)nc(Cl)nc32)[C@H](O)[C@@H]1O)C(=O)CP1(=O)OCCC(c2cccc(Cl)c2)O1 (stereo partly drawn) [Q]
> 1 | CN(C[C@H]1O[C@@H](n2cnc3c(NC4CCCC4)nc(Cl)nc32)[C@H](O)[C@@H]1O)C(=O)CP1(=O)Nc2ccccc2CO1 (stereo partly drawn) [R]
